Like-named read-outs stand apart in the source and are kept apart here.
Experiments:
[1] = test system: BJ human skin fibroblasts; test: MTS cytotoxicity assay, 72 h, BJ fibroblasts; assay type: cell-based; settings: Homo sapiens, Skin fibroblast, normal fibroblasts
How it was run: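 Cells were exposed to compounds for 72 h at 50–0.0975 μmol/L (2-fold dilutions), then MTS/phenazine methosulfate was added for 1–4 h. Absorbance read at 490 nm; IC50 derived from concentration-response.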

[2] = test system: Hh signaling (Gli Reporter-NIH3T3, Gli-responsive FLuc); test: Gli Reporter-NIH3T3 luciferase assay, mSHH or SAG induced; assay type: cell-based; settings: mean ± SD, n=3
Protocol: To further validate the effect of new triterpenes on Hh signaling, we used the commercial reporter cell line NIH3T3–Gli reporter, which expresses the firefly luciferase (FLuc) gene under the control of a Gli-responsive element.
Gli Reporter-NIH3T3 (BPS Bioscience) cells were cultured in DMEM medium supplemented with 10% iron-supplemented bovine calf serum and under the selection pressure of Geneticin (500 μg/mL) at 37 °C in an atmosphere of 5% CO2 with 95% humidity. The Gli Reporter-NIH3T3 cell line expresses the firefly luciferase (FLuc) gene under the control of a Gli responsive element stably integrated into NIH3T3 cells. The cell line was validated through response to mSHH stimulation and the effect of commercially available Hh inhibitors (Cyclopamine). The assay was performed in 384-well white opaque microplates. Gli Reporter-NIH3T3 cells were transferred to Opti-MEM medium with a reduced content of 0.5% (v/v) iron-supplemented bovine calf serum, supplemented with a 1% solution of nonessential amino acids, 1 mmol/L sodium pyruvate, and 10 mmol/L HEPES, and seeded on the panel in a volume of 25 μL of cell suspension per well at a concentration of 2.5 × 10^5/mL. The following day, compounds were transferred at the concentration range of 16–0.25 μmol/L (dilution factor 2) and incubated for 2 h. Then, the mSHH ligand at concentrations of 0.25 and 0.5 μg/mL and SAG (a synthetic SMO agonist) at concentrations of 2 and 4 nmol/L were added to the wells. Controls representing DMSO-treated cells were also included at a concentration of 0.1% (v/v). Cells were incubated for another 24–30 h and then kept for 30 min at room temperature, and finally, 25 μL of Britelite plus reagent was added to each well. Plates were placed on a shaker to achieve complete cell lysis, and luminescence was measured after 3 min on an EnVision plate reader.

[3] = SAG (SMO agonist) 2 nM after 2 h preincubation, read-out: IC50 SAG stimulation 2 nM
[4] = SAG (SMO agonist) 4 nM after 2 h preincubation, read-out: IC50 SAG stimulation 4 nM
[5] = mSHH 0.25 μg/mL after 2 h preincubation, read-out: IC50 mSHH stimulation 0.25 (μg/mL)
[6] = mSHH 0.5 μg/mL after 2 h preincubation, read-out: IC50 mSHH stimulation 0.5 (μg/mL)

Compound	IC50 ([1]; Table 1)	IC50 ([1]; full Table S1)	IC50 [2, 3]	IC50 [2, 4]	IC50 [2, 5]	IC50 [2, 6]
C=C(C)[C@@H]1CC[C@]2(C(=O)O)CC[C@]3(C)C(CCC4[C@@]5(C)C=C(c6ccco6)C(=O)C(C)(C)C5CC[C@]43C)C12 (stereo partly drawn) [Compound 11a, 2-(Furan-2-yl)-3-oxolupa-1,20(29)-dien-28-oic acid]	39 µM	39.1 µM	4.5 ± 0.6 µM	3.8 ± 0.4 µM	3.5 ± 0.5 µM	1.9 ± 0.2 µM
C=C(C)[C@@H]1CC[C@]2(C(=O)O)CC[C@]3(C)C(CCC4[C@@]5(C)C=C(c6ccoc6)C(=O)C(C)(C)C5CC[C@]43C)C12 (stereo partly drawn) [Compound 11b, 2-(Furan-3-yl)-3-oxolupa-1,20(29)-dien-28-oic acid]	37 µM	36.6 µM	3.5 ± 0.2 µM	4.1 ± 0.4 µM	3.2 ± 0.3 µM	2.4 ± 0.3 µM

From publication PMC11923649, “Novel C-2 Aromatic Heterocycle-Substituted Triterpenoids Inhibit Hedgehog Signaling in GLI1 Overexpression Cancer Cells” (ACS Omega, 2025)
